Measured values published in US20110112299A1, “TETRACYCLIC COMPOUND” (KYOWA HAKKO KIRIN CO., LTD., priority 2008, published 2011).

Assays:
[1] = target: T1, recombinant human progesterone receptor (Homo sapiens, UniProt P06401); assay: Human progesterone receptor assay (fluorescence polarization, Test Example 2); assay type: binding; details: at a concentration of 1000 nmol/L
T1 construct: purchased Panvera/Invitrogen P2899 (kit P2895)
T1 sequence (P06401 675-933 limits assumed): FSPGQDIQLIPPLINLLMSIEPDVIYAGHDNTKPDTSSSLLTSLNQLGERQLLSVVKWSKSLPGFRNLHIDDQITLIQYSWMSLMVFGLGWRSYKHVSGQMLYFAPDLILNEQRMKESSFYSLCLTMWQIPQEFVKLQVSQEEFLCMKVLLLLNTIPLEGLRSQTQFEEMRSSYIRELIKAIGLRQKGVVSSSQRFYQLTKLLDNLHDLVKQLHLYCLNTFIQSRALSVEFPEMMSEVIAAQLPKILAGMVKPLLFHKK
Experimental: In this assay, a fluorescence polarization assay kit (Panvera/Invitrogen, product number: P2895) was used. The recombinant human progesterone receptor (product number: P2899), the Fluoromore (trademark)-labeled progesterone (PL Green, product number: P2897), and the basic buffer solution (product number: P2901) which were used in the assay kit had been stored at −80° C. until used. A buffer solution for the assay was prepared by adding 250 fold dilution of 1 mol/L DTT to the basic buffer solution to give a final concentration of 4 mmol/L.
The assay was performed as follows. The test compound was diluted to 2-fold of the desired concentration with the buffer solution for the assay, and 16 μL of that was added to each well. […] The fluorescence polarization value of each well was measured using a plate reader (PerkinElmer, Fusion or Envision). […] To a positive control group, mifepristone (RU-486) was added so as to give a final concentration of 1 μmol/L. The progesterone receptor binding rate (%) was calculated by the following formula.
Progesterone receptor binding rate (%)=100×[1−(fluorescence polarization value of test compound solution−fluorescence polarization value of positive control solution)/(fluorescence polarization value of negative control solution−fluorescence polarization value of positive control solution)]

[2] = system: transcription-promoting activity via the glucocorticoid receptor (A549/MMTV-LTR cells); assay type: cell-based; details: at a concentration of 300 nmol/L; relative to dexamethasone
Experimental: A pGL4.14 plasmid (Promega, product number: AY864928) having a cloned MMTV-LTR fragment upstream of the luciferase gene (−200 to +100 relative to the transcription initiation site) was introduced into A549 cells, and the obtained strain which is constitutively resistant to a selective antibiotic hygromycin B (A549/MMTV-LTR) was used for evaluation. The A549/MMTV-LTR cells were transferred to a 96-well plate (25000 cells/well) and were cultured overnight. […] Next, 20 μL of the test compound diluted to 5-fold of the desired concentration with F-12 medium or 20 μL of 4 μmol/L dexamethasone was added thereto, and the mixture was incubated under 5% CO2 at 37° C. for 6 hours. To each well, 50 μL of a luminescence reagent (Promega, product number: E2550 or E2650) was added, and the mixture was stirred to dissolve the cells, and the luciferase activity was measured by a plate reader (PerkinElmer, TopCount).
MMTV activity (%)=100×(luminescence amount in the presence of the compound−luminescence amount in the absence of the compound)/(luminescence amount in the presence of dexamethasone−luminescence amount in the absence of the compound)

In the case of CC/C(=C1\c2cc3cnn(C)c3cc2COc2ccccc21)c1cccc(NS(C)(=O)=O)c1 [Compound 2, (Z)-5-{1-[3-(methanesulfonamide)phenyl]propylidene}-1-methyl-5,11-dihydrobenzo[6,7]oxepino[4,3-f]indazole], the “inhibitory activity (progesterone receptor binding rate)” value [1] is reported as no more than 10% and the MMTV activity [2] is reported as no more than 10%.
